The values below come from patent US9445588B2, “Methods for increasing oil palm yield” (Valent BioSciences Corporation, priority 2014, dated 2016).

Assay [1] concerns oil palm. Briefly: Field study, repeat bunch-directed preharvest application of AVG every 10 days (Example 1). In kind it is in vivo, oil palm (bi-clonal DxP palms). On the procedure:
Plant material: A field study was executed in a plantation in Malaysia to compare the effects of repeat bunch-directed applications of AVG to the untreated control (UTC). In this study, AVG was provided in a formulation as AVG-HCl at a concentration of 20% w/wt. For both treatments, 148 palms per block with 4 rows per block covering about 1.1 hectare were used. The bi-clonal DxP palms were 3 to 4 years old.
Treatment application: A motorized mist blower was used to apply AVG (500 ppm, at 600 mL/palm or 300 mg/palm/application) to the lower and most mature rows of bunches of each palm.
The time required for 360 degree spray application around each palm was about 30 seconds. Sprays were applied every 10 days which coincided with harvest frequency in this block. Treatments were applied from September to November 2013.
Harvest: Harvest picks occurred every 10 days. Bunches were harvested at the point of initial fruit drop. At harvest, UTC bunches had lost an average of 34.8 fruit/bunch and the AVG-treated bunches had lost 33.9 fruits/bunch. Bunch weight results were recorded over six harvests picks for the 10 representative palms that were tagged for each treatment.
Oil content: At each harvest pick beginning with the fourth harvest pick interval, bunches were selected and individually bagged, tagged, and transferred to the laboratory for determination of oil content. Bunch samples from each harvest were analyzed in the laboratory for oil content using standard methods (Blaak, et al., 1963, J. West African Institute of Oil Palm Research, 4:146-155).
Oil yield: Oil yield was determined as kg oil/bunch=oil content*bunch wt. […] Oil yield was 2.85 kg/bunch for the AVG treatment and 2.56 kg/bunch for the UTC.

Assay [2] relates to oil palm. The assay is described as follows: Second field study, repeat preharvest AVG sprays every 20 days, harvest 10 days after treatment (Example 2). In kind it is in vivo, oil palm (bi-clonal DxP palms). As to conditions: AVG 500 ppm. As for the experimental part: Plant material: A second field study was executed in a plantation in Malaysia to compare the effects of repeat broadcast directed bunch applications of AVG to the untreated control (UTC). For both treatments, 148 palms per block with 4 rows per block covering about 1.1 ha were used. The bi-clonal DxP palms were 3 to 4 years old. Treatment application: A motorized mist blower was used to apply AVG (500 ppm at 600 mL/plant or 300 mg/palm/application) to the lower and most mature rows of bunches of each palm plant. The time required for 360 degree spray application per palm plant was about 30 seconds. Treatments were applied every 20 days and harvests of treated palms were 10 days after treatments. Untreated bunches were harvested every 10 days. Treatments were applied from September to November 2013. Oil yield: Oil yield was determined as kg oil/bunch=oil content*bunch wt. […] Oil yield was 2.80 kg/bunch for the AVG treatment and 2.51 kg/bunch for the UTC.

The subject of assay [3] is oil palm. Briefly: Oil quality (free fatty acid content) of oil from AVG-HCl treated oil palms. In kind it is in vivo. As to conditions: Rath and Shashikant 2014, Valent BioSciences technical information.
Another assay has as its system oil palm fruit. As to conditions: preharvest application to attached bunches of oil palm fruit; cited from earlier work.

In the case of `NCCO/C=C/[C@H](N)C(=O)O` (stereo in doubt) [AVG, [S]-trans-2-amino-4-(2-aminoethoxy)-3-butenoic acid], the “Average Oil Content” value is on record as 0.284 oil wt/bunch wt with oil palm [1] (AVG 500 ppm, 600 mL/palm (300 mg/palm/application), sprays every 10 days, bunches from fourth harvest pick on) and 0.299 oil wt/bunch wt in the assay on oil palm [2] (600 mL/plant (300 mg/palm/application)). In addition, the “Oil Yield (oil content*bunch wt)” value with oil palm [1] (AVG 500 ppm, 600 mL/palm, sprays every 10 days) was determined as 2.85 kg oil/bunch; in the assay with oil palm [2] (600 mL/plant), 2.80 kg oil/bunch. Also, the “Average Bunch Weight” value turned out to be 10.02 kg/bunch in the assay with oil palm [1] (AVG 500 ppm, 600 mL/palm, sprays every 10 days, six harvest picks, 10 tagged palms) and 9.36 kg/bunch in the assay with oil palm [2] (600 mL/plant). Besides, the “Average fruit lost per bunch at harvest” value with oil palm [1] (bunches harvested at the point of initial fruit drop, UTC 34.8 fruit/bunch) was determined as 33.9 fruits/bunch.
`Cl.NCCO/C=C/[C@H](N)C(=O)O` [AVG-HCl]: in the assay on oil palm [3], the “Free fatty acid content of the oil” value was “did not have increased free fatty acid content”.
In the case of `O=P(O)(O)CCCl` [ethephon, 2-chloroethyl phosphonic acid], in the assay on oil palm fruit, the “Increase in oil content” value is recorded as 7%.
